For one molecule, Activity results are on record in ChEMBL document CHEMBL3393057, “Synthesis and transmembrane anion/cation symport activity of a rigid bis(choloyl) conjugate functionalized with guanidino groups” (Bioorg Med Chem Lett, 2015).

Data set [1] is described as follows: Ionophoric activity across egg yolk L-alpha-phosphatidylcholine-based liposomal membrane vesicles (unknown origin) assessed as release of chloride ion at 5 mol% by electrode technique in presence of 500 mM RbCl. In kind it is ADME. To be noted: artificial membrane.
Data set [2] in a line: Ionophoric activity across egg yolk L-alpha-phosphatidylcholine-based liposomal membrane vesicles (unknown origin) assessed as induction of pH discharge at internal pH 7 and external aqueous phase pH 8 at 3 mol% by pyranine dye-based method in presence of NaI. The settings on record: artificial membrane.
A short description of data set [3]: Ionophoric activity across egg yolk L-alpha-phosphatidylcholine-based liposomal membrane vesicles (unknown origin) assessed as release of chloride ion at 5 mol% by electrode technique in presence of 500 mM LiCl. In kind it is ADME. The settings on record: artificial membrane.
The nature of data set [4]: Ionophoric activity across egg yolk L-alpha-phosphatidylcholine-based liposomal membrane vesicles (unknown origin) assessed as induction of pH discharge at internal pH 7 and external aqueous phase pH 8 at 3 mol% by pyranine dye-based method in presence of NaCl. The settings on record: artificial membrane.
A short description of data set [5]: Ionophoric activity across egg yolk L-alpha-phosphatidylcholine-based liposomal membrane vesicles (unknown origin) assessed as release of chloride ion after 300 seconds by electrode technique in presence of sodium nitrate in external solution. In kind it is ADME. To be noted: artificial membrane, 5 min.
Data set [6] in a line: Ionophoric activity across egg yolk L-alpha-phosphatidylcholine-based liposomal membrane vesicles (unknown origin) assessed as induction of pH discharge at internal pH 7 and external aqueous phase pH 8 at 3 mol% by pyranine dye-based method in presence of NaBr. To be noted: artificial membrane.
Data set [7] can be described thus: Ionophoric activity across egg yolk L-alpha-phosphatidylcholine-based liposomal membrane vesicles (unknown origin) assessed as release of chloride ion at 5 mol% by electrode technique in presence of 500 mM KCl. The data set is classed as ADME. To be noted: artificial membrane.
Data set [8] in a line: Ionophoric activity across egg yolk L-alpha-phosphatidylcholine-based liposomal membrane vesicles (unknown origin) assessed as release of chloride ion at 5 mol% by electrode technique in presence of 500 mM NaCl. The settings on record: artificial membrane. In kind it is ADME.
Data set [9] is described as follows: Ionophoric activity across egg yolk L-alpha-phosphatidylcholine-based liposomal membrane vesicles (unknown origin) assessed as release of chloride ion after 300 seconds by electrode technique in presence of sodium sulfate in external solution. The data set is classed as ADME. The settings on record: artificial membrane, 5 min.
Data set [10] is described as follows: Ionophoric activity across egg yolk L-alpha-phosphatidylcholine-based liposomal membrane vesicles (unknown origin) assessed as induction of pH discharge at internal pH 7 and external aqueous phase pH 8 at 3 mol% by pyranine dye-based method in presence of NaNO3. To be noted: artificial membrane.
The nature of data set [11]: Ionophoric activity across egg yolk L-alpha-phosphatidylcholine-based liposomal membrane vesicles (unknown origin) assessed as release of chloride ion at 5 mol% by electrode technique in presence of 500 mM CsCl. The data set is classed as ADME. The settings on record: artificial membrane.

`C[C@H](CCC(=O)NC(CCCNC(=N)N)C(=O)NCc1ccc(CNC(=O)C(CCCNC(=N)N)NC(=O)CC[C@@H](C)[C@@H]2CC[C@@H]3[C@@H]4[C@@H](C[C@@H](O)[C@]32C)[C@]2(C)CC[C@H](O)C[C@@H]2C[C@@H]4O)cc1)[C@H]1CC[C@H]2[C@@H]3[C@H](O)C[C@@H]4C[C@H](O)CC[C@]4(C)[C@H]3C[C@H](O)[C@]12C` (stereo partly specified): the Activity result is listed as “Active” in data set [1]; “Active” in [2]; “Active” in [3]; “Active” in data set [4]; “Dose-dependent effect” in data set [5]; “Active” in [6]. For the same molecule, the result in [7], in [8], in data set [9], in data set [10] and in data set [11] was Active.
